Among the test systems are NCI-H522 lung; MCF7 breast; HL-60(TB) leukemia; SNB-75 CNS; SN12C renal; 786-0 renal; DU-145 prostate; A498 renal; HCT-15 colon; NCI-H460 lung; HCT-116 colon.
What all share (test): DTP human tumour cell line panel, 48 h

The source of these data is PubChem BioAssay (NCI).

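Values below derive from 48-hour exposures of cells grown in 96-well plates, with endpoints linearly interpolated between the two concentrations bracketing the appropriate inhibition level. The concentration for full growth arrest is given as TGI.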

Take `CN(CC(=O)O)CC(=O)O`: the TGI in the assay on NCI-H522 lung, in the assay on MCF7 breast, in the assay with HL-60(TB) leukemia, in the assay on SNB-75 CNS, in the assay with SN12C renal and in the assay on 786-0 renal was > 100 µM throughout. Further, the TGI in the assay on DU-145 prostate, in the assay with A498 renal, in the assay with HCT-15 colon, in the assay with NCI-H460 lung and with HCT-116 colon was > 100 µM in each case.
For `Brc1c2c(c(Br)c3nsnc13)N=S=N2`, the TGI was > 57.5 µM with NCI-H522 lung; > 65.6 µM with MCF7 breast; 12.3 µM in the assay on HL-60(TB) leukemia; 63.7 µM in the assay on SNB-75 CNS; 32.8 µM in the assay with SN12C renal; 41.6 µM in the assay on 786-0 renal. Moreover, the TGI in the assay on DU-145 prostate was > 100 µM; in the assay with A498 renal, > 96.4 µM; with HCT-15 colon, 60 µM; with NCI-H460 lung, > 69.3 µM; in the assay with HCT-116 colon, > 69.2 µM.
On to `N#Cc1sc2c(c1OC(=O)c1ccc(Cl)cc1)c(=O)n(-c1ccccc1)c(=S)n2-c1ccccc1`, for which the TGI in the assay with NCI-H522 lung was 5.29 µM; with MCF7 breast, 84.2 µM; in the assay on HL-60(TB) leukemia, 46.6 µM; with SNB-75 CNS, > 100 µM; in the assay with SN12C renal, 54 µM; in the assay with 786-0 renal, 63.6 µM. Further, the TGI in the assay on DU-145 prostate was > 100 µM; in the assay on A498 renal it was 57.2 µM; in the assay with HCT-15 colon it was 35.4 µM; in the assay on NCI-H460 lung, 33.3 µM; with HCT-116 colon, 44.3 µM.
Regarding `COC(=O)[C@H](C)NC(=O)C1(CNC(=O)[C@H](C)NC(=O)OC(C)(C)C)Cc2ccccc2-c2ccccc2C1`, the TGI in the assay on NCI-H522 lung was 20.8 µM; in the assay with MCF7 breast, > 84.3 µM; with HL-60(TB) leukemia, 39.5 µM; with SNB-75 CNS, > 60.2 µM; with SN12C renal, 34.6 µM; in the assay with 786-0 renal, 36.4 µM. Besides, the TGI in the assay on DU-145 prostate is > 42.7 µM; with A498 renal, > 71.1 µM; in the assay with HCT-15 colon, 31.1 µM; with NCI-H460 lung it was 42.9 µM; with HCT-116 colon, > 54.1 µM.
Consider `O=[N+]([O-])c1cnc(N(CCO)CCO)s1`, for which the TGI in the assay with NCI-H522 lung was > 100 µM; in the assay on MCF7 breast, > 100 µM; with HL-60(TB) leukemia, > 100 µM; with SNB-75 CNS, 0.341 µM; in the assay on SN12C renal, > 100 µM; in the assay on 786-0 renal, > 100 µM. Besides, the TGI in the assay on DU-145 prostate, in the assay on A498 renal, in the assay on HCT-15 colon, in the assay on NCI-H460 lung and with HCT-116 colon was > 100 µM each time.
As to `Cc1ccc(C(=O)O)c(/C=C2\Cc3cc(C)cc(C)c3C2=O)c1`, the TGI in the assay on NCI-H522 lung, in the assay on MCF7 breast, in the assay with HL-60(TB) leukemia, in the assay on SNB-75 CNS, with SN12C renal and in the assay on 786-0 renal was > 100 µM each time. The TGI in the assay with DU-145 prostate, in the assay with A498 renal, with HCT-15 colon, in the assay on NCI-H460 lung and in the assay with HCT-116 colon was > 100 µM throughout.
`C=C[C@]1(C)CC(=O)C(C(C)C=O)[C@]12C(=O)Oc1cccc(C)c1C2=O` (stereo partly specified): the TGI in the assay with NCI-H522 lung stood at 18.2 µM; with MCF7 breast, 32.7 µM; with HL-60(TB) leukemia, 32.3 µM; with SNB-75 CNS, 30.8 µM; in the assay on SN12C renal, 30.3 µM; in the assay on 786-0 renal it was 30 µM. For the same molecule, the TGI in the assay on DU-145 prostate came out at 30.6 µM; in the assay on A498 renal it was 71.1 µM; in the assay with HCT-15 colon it was 28.3 µM; with NCI-H460 lung, 30.5 µM; with HCT-116 colon, 20.6 µM.
For the molecule `CN1CN(c2ccccc2)C2(CCN(C3Nc4ccccc4O3)CC2)C1=O` (stereo unspecified), the TGI in the assay on NCI-H522 lung was determined as 39.2 µM; in the assay on MCF7 breast it was 38.6 µM; in the assay with HL-60(TB) leukemia it was 43.5 µM; with SNB-75 CNS it was 62.3 µM; in the assay on SN12C renal, 34.7 µM; in the assay on 786-0 renal, 49.6 µM. For the same molecule, the TGI turned out to be 60.1 µM with DU-145 prostate; 42.1 µM in the assay with A498 renal; 28.8 µM in the assay on HCT-15 colon; 43.9 µM in the assay with NCI-H460 lung; 29.8 µM with HCT-116 colon.
Consider `O=C(NNC(=S)Nc1ccc(Cl)cc1)C12CC3CC(CC(C3)C1)C2`, for which the TGI with NCI-H522 lung was 20.2 µM; in the assay on MCF7 breast, > 56.5 µM; in the assay on HL-60(TB) leukemia it was 5.48 µM; with SNB-75 CNS, 51.1 µM; in the assay with SN12C renal it was 28.7 µM; with 786-0 renal, > 58 µM. The TGI with DU-145 prostate came out at 43.6 µM; in the assay on A498 renal, 22.9 µM; with HCT-15 colon, 42.5 µM; in the assay on NCI-H460 lung, 24.5 µM; in the assay on HCT-116 colon, 9.26 µM.
For `COc1ccc(C2CC(c3ccc(NS(=O)(=O)c4cc([N+](=O)[O-])ccc4C)cc3)=NN2S(=O)(=O)c2cc([N+](=O)[O-])ccc2C)cc1` (stereo unspecified), the TGI was 79.4 µM in the assay with NCI-H522 lung; > 100 µM with MCF7 breast; > 100 µM in the assay with HL-60(TB) leukemia; > 100 µM in the assay with SNB-75 CNS; > 100 µM in the assay on SN12C renal; > 100 µM in the assay on 786-0 renal. Besides, the TGI in the assay on DU-145 prostate, in the assay on A498 renal, with HCT-15 colon, in the assay on NCI-H460 lung and in the assay with HCT-116 colon was > 100 µM in each case.
As to `CC(C)(C)C(O)CC(O)(C(F)(F)F)C(F)(F)F` (stereo unspecified), the TGI in the assay on NCI-H522 lung, in the assay on MCF7 breast, in the assay with HL-60(TB) leukemia, with SNB-75 CNS, in the assay on SN12C renal and with 786-0 renal was > 100 µM in each case. In addition, the TGI in the assay with DU-145 prostate, in the assay with A498 renal, in the assay on HCT-15 colon, with NCI-H460 lung and with HCT-116 colon was > 100 µM each time.
Take `CC(O)CC(=O)CO[C@H]1[C@H](O)[C@@H](O)[C@@H](O)[C@@H]2NC(=O)c3c(cc4c(c3O)OCO4)[C@H]21` (stereo partly specified): the TGI with NCI-H522 lung is 0.0962 µM; with MCF7 breast, 0.461 µM; with HL-60(TB) leukemia, 0.2 µM; in the assay with SNB-75 CNS, 0.404 µM; in the assay with SN12C renal, 0.784 µM; in the assay on 786-0 renal it was 0.485 µM. The TGI is 0.0818 µM with DU-145 prostate, 0.072 µM with A498 renal, 0.188 µM in the assay with NCI-H460 lung and 0.345 µM with HCT-116 colon.
